From publication PMC11938273 (Journal of Chemical Information and Modeling, 2025)
Read-outs that look alike come from different tables or passages of the source.

Legend:
[1] = mouse, in vivo
[2] = in vivo; cited from earlier work

SMILES | CNS status [1] | CNS status [2]
COC(=O)[C@H]1[C@@H](c2ccc(I)cc2)C[C@@H]2CC[C@H]1N2C/C=C/I [Me@IPICIT, Methyl (1R,2S,3S,5S)-3-(4-iodophenyl)-8-[(2E)-3-iodo-2-propen-1-yl]-8-azabicyclo [3.2.1]octane-2-carboxylate] | Positive | –
CN(C)Cc1ccccc1Sc1ccc(C#N)cc1N [DASB, 3-Amino-4-((2-((dimethylamino)methyl)phenyl)thio)benzonitrile] | – | Positive
COc1cc2c(cc1OC)CN(CCc1ccc(NC(=O)c3cc(OC)c(OC)cc3NC(=O)c3cnc4ccccc4c3)cc1)CC2 [Tariquidar, N-[2-({4-[2-(6,7-Dimethoxy-3,4-dihydro-2(1H)-isoquinolinyl)ethyl]phenyl}carbamoyl)-4,5-dimethoxyphenyl]-3-quinolinecarboxamide] | – | Efflux transporter substrate
CNC(=O)Oc1ccc2c(c1)[C@]1(C)CCN(C)[C@@H]1N2C [Physostigmine, (3aS,8aR)-1,3a,8-trimethyl-1,2,3,3a,8,8a-hexahydropyrrolo[2,3-b]indol-5-yl methylcarbamate] | – | Positive
